Measurements reported in paper PMC12291464, “Modifying Antifungal Peptides as Safe Food Preservatives” (Journal of Agricultural and Food Chemistry, 2025).
Values after ≈ are worked out from the molar mass of the structure shown. “Also recorded” adds a separate entry of the source. Read-outs that look alike come from different tables or passages of the source. Residues, ends and D or L forms follow the SMILES beside them.

How the values were obtained:
MRSA = system: MRSA
Procedure: (§1) A1163 was grown on potato dextrose agar (PDA) medium at 37 °C for 5 days, and then the conidia were scraped and suspended in PBS with 0.025% (v/v) Tween 20, counted using a hemocytometer, and kept at 4 °C. isolated from peanuts and Pe21 (both kindly provided by Dr. Edward Sionov, ARO, Israel) were grown on PDA medium at 25 °C for 5 days, and then the conidia were scraped and suspended in PBS with 0.025% Tween 20 and kept at 4 °C. RP and methicillin-resistant (MRSA) were grown on LB agar plates, and individual colonies were picked and grown in Mueller–Hinton (MH) broth overnight at 37 °C. was grown on PDA medium at 30 °C, and individual colonies were picked and grown in yeast extract peptone dextrose (YPD) media overnight at 30 °C. All fungal and bacteria strains were maintained at −80 °C in 50% (v/v) glycerol stock.
(§2) For filamentous fungi strains, serial dilutions of 100 μL ranged from 100 to 0.78 μM for each peptide in a 96 well plate using RPMI1640 with 165 μM MOPS. A total of 80 μL of inoculum was suspended with a conidia load of 5 × 10^3 CFU/mL (final density of 2 × 10^3 CFU/mL), and 20 μL of resazurin was diluted in RPMI1640 solution of 0.02% [final concentration of 0.0002% (w/v)]. In the control, 100 μL of treatment was replaced by the same volume with medium, while the negative control was 180 μL of the medium and 20 μL of resazurin solution. Plates were incubated at 37 °C for and 25 °C for and for 24 h. The results were quantified by measuring absorbance at 570 nm with a microplate reader (Tecan). The mean absorbance values were used in subsequent calculations. The growth of resazurin reduction and growth inhibition was calculated using the following normalization: % growth=100−% reduction=abs of test agent−abs of untreated control/abs of reduced resazurin−abs of untreated control The MIC was defined as the lowest concentration of the peptide that inhibited fungal growth by 90%, allowing for only 10% of the normal growth. For bacterial and yeast strains studies, serial dilutions of 100 μL ranged from 100 to 0.78 μM for each peptide in a 96 well plate using MH media for bacteria and YPD for yeast. A total of 100 μL of the microbe in suitable media (5 × 10^5 CFU/mL) was inoculated in each well. In the untreated well (e.g., control), 100 μL of treatment was replaced by the same volume with medium, while in the negative control, media were only without microbes and peptides. After 24 h of incubation at 37 °C for bacteria and 30 °C for yeast, plates were read at 595 nm and MIC was defined as the lowest concentration of peptide that reduced the growth of the microbe to 10% growth.

E. coli = system: E. coli
Procedure: as §1, §2

A. Niger = details: 24 h
Procedure: as §1, §2

A. fumigatus = details: 24 h
Procedure: as §1, §2

P. expansum = details: 24 h
Procedure: as §1, §2

chymotrypsin = chymotrypsin (Bos taurus, UniProt P00766); test: Digestion examination of the peptides by chymotrypsin
Procedure: Peptides were dissolved in 1 mL of 100 μM NH4HCO3 to a final concentration of 4 mM, followed by the addition of 1 μL chymotrypsin (1 mg/mL), and were incubated at 37 °C and 150 rpm. At each time point, 75 μL of the solution was transferred to 90 °C for inactivation of the enzyme. After the peptides were frozen in liquid nitrogen and lyophilized, they were dissolved in DMSO and were analyzed in HPLC using Analytic Phenomenex Luna C18 (5 μm, 4.6 × 250 mm) with standard RP-HPLC conditions. The area under curve (AUC) was calculated at each time point and normalized to time = 0.
4 Peptide’s secondary structure and digestibility. (A) CD spectra of the peptides (50 μM) in DDW was measured using a J-1100 spectropolarimeter (Jasco), with the following parameters: wavelength range of 190–260 nm, bandwidth of 1 nm, data pitch of 0.1 nm, and three accumulations. A baseline spectrum was recorded using a 0.1 cm quartz cuvette filled with DDW and subtracted from the peptide spectrum to obtain the corrected CD spectrum. […] The area under the curve (AUC) was calculated at each time point and normalized to t = 0. The y axis ranges from 100%, meaning not digested at all, to 0%, meaning fully digested.

[1] = MH media, 5 × 10^5 CFU/mL, 24 h at 37 °C, read at 595 nm, MIC = growth reduced to 10%, average ± SE, 3 biological repeats in triplicates
[2] = RPMI1640 with MOPS, resazurin, absorbance 570 nm, MIC = lowest concentration inhibiting growth by 90%, average ± SE, 3 biological repeats in triplicates

SMILES | MIC Values, MRSA (MRSA; [1]) | MIC Values, E. coli (E. coli; [1]) | MIC Values, A. Niger (A. Niger; [2]) | MIC Values, A. fumigatus (A. fumigatus; [2]) | MIC Values, P. expansum (P. expansum; [2]) | digestion by chymotrypsin (chymotrypsin) | MIC Values, MRSA (MRSA) | MIC Values, E. coli (E. coli) | MIC Values, MRSA (MRSA; 24 h) | MIC Values, E. coli (E. coli; 24 h) | MIC Values, A. Niger (A. Niger) | MIC Values, A. fumigatus (A. fumigatus) | MIC Values, P. expansum (P. expansum)
CC[C@H](C)[C@H](NC(=O)[C@H](CCCCN)NC(=O)[C@H](CCCCN)NC(=O)[C@H](Cc1ccccc1)NC(=O)[C@H](CC(C)C)NC(=O)[C@H](CCCCN)NC(=O)[C@H](CCCCN)NC(=O)[C@H](CC(C)C)NC(=O)[C@H](Cc1ccc(O)cc1)NC(=O)[C@H](CCCCN)NC(=O)[C@H](CC(C)C)NC(=O)[C@@H](NC(=O)[C@H](CCCCN)NC(=O)[C@H](CCCCN)NC(=O)[C@H](Cc1ccccc1)NC(=O)[C@H](CC(C)C)NC(=O)[C@H](CCCCN)NC(=O)[C@@H](N)CCCCN)[C@@H](C)CC)C(=O)N[C@@H](CC(C)C)C(=O)N[C@@H](CCCCN)C(=O)N[C@@H](Cc1ccc(O)cc1)C(=O)N[C@@H](CC(C)C)C(N)=O [BP100 Double] (H-KKLFKKILKYLKKLFKKILKYL-NH2) | >200 µM | >200 µM | 5 ± 1 µM (≈ 14.1 µg/mL) | 3 ± 0.5 µM (≈ 8.47 µg/mL) | 2 ± 0 µM (≈ 5.65 µg/mL) | less prone for digestions; also recorded: not digested |  |  |  |  |  |  | 
CC[C@H](C)[C@H](NC(=O)[C@H](CCCCN)NC(=O)[C@H](CCCCN)NC(=O)[C@H](Cc1ccccc1)NC(=O)[C@H](CC(C)C)NC(=O)[C@H](CCCCN)NC(=O)[C@@H](N)Cc1ccccc1)C(=O)N[C@@H](CC(C)C)C(=O)N[C@@H](CCCCN)C(=O)N[C@@H](Cc1ccc(O)cc1)C(=O)N[C@@H](CC(C)C)C(N)=O [BP100 F1K] | 3 ± 1 µM (≈ 4.32 µg/mL) | 3 ± 1 µM (≈ 4.32 µg/mL) | 42 ± 8 µM (≈ 60.5 µg/mL) | 10 ± 2 µM (≈ 14.4 µg/mL) | 6 ± 0 µM (≈ 8.64 µg/mL) |  |  |  |  |  |  |  | 
CC[C@H](C)[C@H](N)C(=O)N[C@@H](CCCCN)C(=O)N[C@@H](CC(C)C)C(=O)N[C@@H](Cc1ccccc1)C(=O)N[C@@H](CCCCN)C(=O)N[C@@H](CCCCN)C(=O)N[C@H](C(=O)N[C@@H](CC(C)C)C(=O)N[C@@H](CCCCN)C(=O)N[C@@H](Cc1ccc(O)cc1)C(=O)N[C@@H](CC(C)C)C(N)=O)[C@@H](C)CC [BP100 I1K] | 3 ± 0 µM (≈ 4.22 µg/mL) | 3 ± 1 µM (≈ 4.22 µg/mL) | 33 ± 8 µM (≈ 46.4 µg/mL) | 13 ± 0 µM (≈ 18.3 µg/mL) | 8 ± 2 µM (≈ 11.2 µg/mL) |  |  |  |  |  |  |  | 
CC[C@H](C)[C@H](NC(=O)[C@H](CCCCN)NC(=O)[C@H](CCCCN)NC(=O)[C@H](Cc1ccccc1)NC(=O)[C@H](CC(C)C)NC(=O)[C@H](CCCCN)NC(=O)[C@@H](N)CC(C)C)C(=O)N[C@@H](CC(C)C)C(=O)N[C@@H](CCCCN)C(=O)N[C@@H](Cc1ccc(O)cc1)C(=O)N[C@@H](CC(C)C)C(N)=O [BP100 L1K] | 3 ± 0 µM (≈ 4.22 µg/mL) | 3 ± 1 µM (≈ 4.22 µg/mL) | 33 ± 8 µM (≈ 46.4 µg/mL) | 13 ± 0 µM (≈ 18.3 µg/mL) | 8 ± 2 µM (≈ 11.2 µg/mL) |  |  |  |  |  |  |  | 
CC[C@H](C)[C@H](NC(=O)[C@H](CCCCN)NC(=O)[C@H](CCCCN)NC(=O)[C@H](Cc1ccccc1)NC(=O)[C@H](CC(C)C)NC(=O)[C@H](CCCCN)NC(=O)[C@@H](N)CCCCN)C(=O)N[C@@H](CC(C)C)C(=O)N[C@@H](CCCCN)C(=O)N[C@@H](Cc1ccc(O)cc1)C(=O)N[C@@H](CC(C)C)C(N)=O [BP100, reference compound] |  |  | 44 ± 8 µM (≈ 62.5 µg/mL) | 6 ± 0 µM (≈ 8.53 µg/mL) | 13 ± 6 µM (≈ 18.5 µg/mL) |  | 17 ± 4 µM (≈ 24.2 µg/mL) | 3 ± 2 µM (≈ 4.26 µg/mL) |  |  |  |  | 
C[C@H](N)C(=O)N[C@@H](CCCCN)C(=O)N[C@@H](CCCNC(=N)N)C(=O)N[C@@H](Cc1c[nH]cn1)C(=O)N[C@@H](Cc1c[nH]cn1)C(=O)NCC(=O)N[C@@H](Cc1ccc(O)cc1)C(=O)N[C@@H](CCCCN)C(=O)N[C@@H](CCCNC(=N)N)C(=O)N[C@@H](CCCCN)C(=O)N[C@@H](Cc1ccccc1)C(=O)N[C@@H](Cc1c[nH]cn1)C(=O)N[C@@H](C)C(=O)N[C@@H](CCCCN)C(=O)N[C@@H](CCCNC(=N)N)C(=O)N[C@@H](Cc1c[nH]cn1)C(=O)N[C@@H](Cc1c[nH]cn1)C(=O)NCC(=O)N[C@@H](Cc1ccc(O)cc1)C(=O)N[C@@H](CCCCN)C(=O)N[C@@H](CCCNC(=N)N)C(=O)N[C@@H](CCCCN)C(=O)N[C@@H](Cc1ccccc1)C(=O)N[C@@H](Cc1c[nH]cn1)C(N)=O [P-113 Double] (H-AKRHHGYKRKFHAKRHHGYKRKFH-NH2) | >200 µM | >200 µM | 5 ± 1 µM (≈ 15.6 µg/mL) | 15 ± 5 µM (≈ 46.7 µg/mL) | 9 ± 3 µM (≈ 28 µg/mL) |  |  |  |  |  |  |  | 
C[C@H](N)C(=O)N[C@@H](CCCCN)C(=O)N[C@@H](CCCNC(=N)N)C(=O)N[C@@H](CCCCN)C(=O)N[C@@H](CCCCN)C(=O)NCC(=O)N[C@@H](Cc1ccc(O)cc1)C(=O)N[C@@H](CCCCN)C(=O)N[C@@H](CCCNC(=N)N)C(=O)N[C@@H](CCCCN)C(=O)N[C@@H](Cc1ccccc1)C(=O)N[C@@H](CCCCN)C(N)=O [P-113 H4,5,12K] (H-AKRKKGYKRKFK-NH2) | >200 µM | >200 µM | 14 ± 4 µM (≈ 21.5 µg/mL) | 5 ± 1 µM (≈ 7.68 µg/mL) | >200 µM |  |  |  |  |  |  |  | 
C[C@H](N)C(=O)N[C@@H](CCCCN)C(=O)N[C@@H](CCCNC(=N)N)C(=O)N[C@@H](CCCCN)C(=O)N[C@@H](Cc1c[nH]cn1)C(=O)NCC(=O)N[C@@H](Cc1ccc(O)cc1)C(=O)N[C@@H](CCCCN)C(=O)N[C@@H](CCCNC(=N)N)C(=O)N[C@@H](CCCCN)C(=O)N[C@@H](Cc1ccccc1)C(=O)N[C@@H](Cc1c[nH]cn1)C(N)=O [P-113 H4K] (H-AKRKHGYKRKFH-NH2) |  |  |  |  |  |  |  |  | >200 µM | >200 µM | 14 ± 2 µM (≈ 21.8 µg/mL) | 33 ± 8 µM (≈ 51.3 µg/mL) | >200 µM
C[C@H](N)C(=O)N[C@@H](CCCCN)C(=O)N[C@@H](CCCNC(=N)N)C(=O)N[C@@H](Cc1c[nH]cn1)C(=O)N[C@@H](Cc1c[nH]cn1)C(=O)NCC(=O)N[C@@H](Cc1ccc(O)cc1)C(=O)N[C@@H](CCCCN)C(=O)N[C@@H](CCCNC(=N)N)C(=O)N[C@@H](CCCCN)C(=O)N[C@@H](Cc1ccccc1)C(=O)N[C@@H](CCCCN)C(N)=O [P-113 H12K] (H-AKRHHGYKRKFK-NH2) | >200 µM | >200 µM | 17 ± 4 µM (≈ 26.4 µg/mL) | 4 ± 1 µM (≈ 6.22 µg/mL) | >200 µM |  |  |  |  |  |  |  | 
C[C@H](N)C(=O)N[C@@H](CCCCN)C(=O)N[C@@H](CCCNC(=N)N)C(=O)N[C@@H](Cc1c[nH]cn1)C(=O)N[C@@H](Cc1c[nH]cn1)C(=O)NCC(=O)N[C@@H](Cc1ccc(O)cc1)C(=O)N[C@@H](CCCCN)C(=O)N[C@@H](CCCNC(=N)N)C(=O)N[C@@H](CCCCN)C(=O)N[C@@H](Cc1ccccc1)C(=O)N[C@@H](Cc1c[nH]cn1)C(N)=O [P-113, reference compound] (H-AKRHHGYKRKFH-NH2) |  |  |  |  |  |  |  |  | >200 µM | >200 µM | 14 ± 2 µM (≈ 21.9 µg/mL) | 21 ± 4 µM (≈ 32.8 µg/mL) | >200 µM
